According to US20240316036A1, “DISULFIDE CONTAINING THERAPEUTICS AND DIAGNOSTICS” (Singular Genomics Systems, Inc., priority 2023, published 2024):

Experiment: Cleavage kinetics of cleavable linking moieties (CLM) with reducing agent THPP, compounds immobilized on a solid support
Format: physicochemical
Details: 1 mM THPP, 55° C.
Procedure: For the assay, a plurality of compounds containing the CLM was immobilized on a solid support. Next, a cleavage solution containing 10 mM THPP as a reducing agent was introduced for controlled periods of time. A second labeled compound was introduced to the solid support; compounds without a CLM will bind the labeled compounds. The cleavage reaction was carried out at 55° C., in a buffer solution at 9.5 pH. The degree of cleavage was measured as the percent of compounds that include a labeled compound as a function of time.
A similar assay as described supra was performed, except that the concentration of the reducing agent was diluted to 1 mM of THPP and the cleavage reaction was carried out at 55° C.

## methylene disulfide [CLM #1]
  cleavage reaction: slow
